Source: article PMC11609934, “Exploration and characterization of the antimalarial activity of cyclopropyl carboxamides that target the mitochondrial protein, cytochrome b” (European Journal of Medicinal Chemistry, 2024)
pEC50: −log10 of the molar value.

Experiments:
[1] = Human HepG2 growth inhibition assay (Cell TitreGlo, 48 h); type: cell-based; settings: human, HepG2 cells, HepG2 cell growth inhibition over 48 h
Experimental: To establish the SAR, synthesized analogs were assessed against the asexual stage parasite (72 h) using LDH as a proxy for parasite growth inhibition. Cytotoxicity was monitored against the human HepG2 cell line using Cell TitreGlo as a metabolic marker for cell growth. Cyt b inhibitors typically have high lipophilicity, and so calculated physicochemical properties were determined, while in vitro ADME was also collected on representative analogs to gauge their suitability for efficacy studies in a 4-day P. berghei model.
Human HepG2 Growth Inhibition Assay. This is a routine assay undertaken at the Walter and Eliza Hall Institute and the method has been previously published. HepG2 cells were cultured in Dulbeccos modified eagles medium (DMEM) supplemented with 10 % fetal calf serum (FCS), in a humidified incubator at 37 °C and 5 % CO2. Assay plates (Greiner #781098, 384 well, white, tissue culture treated) were prepared by transferring appropriate volumes of 10 mM compound stocks using an Echo555 (Labcyte) such that the starting concentration was 50 μM, with a 1:2-fold dilution series. All wells were backfilled with DMSO to […] such that this remained constant (0.5 % DMSO). The positive growth control was 0.5 % DMSO and the negative growth control was 10 μM Bortezomib. HepG2 cells were seeded with 1000 cells in 50 μL DMEM with 10 % FCS into each well of the assay plates using a Multidrop Combi dispenser (Thermo Scientific). Plates were incubated at 37 °C and 5 % CO2 for 48 h. Cytotoxicity was determined using Cell Titer Glo (Promega) and calculated as a percentage using DMSO as the positive growth control and 10 μM Bortezomib as a negative growth control. EC50 values were calculated by Dotmatics 5.3 and Spotfire 7.11.1 software using a nonlinear regression four-parameter fit analysis. The equation used is sigmoidal dose response (variable slope), Y = bottom + (top − bottom)/(1 + 10((logEC50 − X) × Hill Slope)).

[2] = test system: P. falciparum 3D7 parasites; assay: P. falciparum 3D7 asexual stage LDH assay (72 h); type: cell-based, Plasmodium falciparum; settings: for pEC50: Plasmodium falciparum, 3D7, 72 h, LDH activity of P. falciparum 3D7 parasites over 72 h, means and SDs, three or more experiments, read-out: Pf 3D7 EC50 (SD)
Experimental: To establish the SAR, synthesized analogs were assessed against the asexual stage parasite (72 h) using LDH as a proxy for parasite growth inhibition. Cytotoxicity was monitored against the human HepG2 cell line using Cell TitreGlo as a metabolic marker for cell growth.
P. falciparum 3D7 Asexual Stage LDH Assay. This is a platform assay is routinely undertaken at the Walter and Eliza Hall Institute and details on the protocol has been previously published. Briefly, 10-point dilution series of the compounds were prepared in 384 well assay plates using an Echo555 (Labcyte). Appropriate volumes of 10 mM compound stocks were transferred into the assay plates such that the starting concentration was 1 μM, with a 1 in 3-fold dilution series. All wells were backfilled with DMSO to 40 nL such that this remained constant (0.1 % DMSO). The positive growth control was 0.1 % DMSO and the negative growth control was 100 nM chloroquine. The parasite inoculum (40 μL) was dispensed into plates containing compounds using a Multidrop Combi dispenser (Thermo Scientific). […] Following 72 h growth, plates were sealed with parafilm and frozen at −80 °C overnight. Plates were thawed at room temperature for at least 4 h prior to LDH activity being measured. […] Plates were shaken to ensure mixing and absorbance at 650 nm was measured in an EnVision (PerkinElmer) plate reader after 30 min of incubation at room temperature. […] The equation used is sigmoidal dose response (variable slope), Y = bottom + (top − bottom)/(1 + 10((logEC50 − X) × Hill Slope)).

| Compound | CC50 at 48 h [1] [µM] | pEC50 [2] | fold decrease in Pf 3D7 activity relative to 17 ([2]; ratio of EC50 to compound 17) [fold] |
| --- | --- | --- | --- |
| CC(C)c1cccc(CN(Cc2ccc(C(=O)NC3CC3)cc2)C2CC2)c1 [Compound 54, N-Cyclopropyl-4-((cyclopropyl(3-isopropylbenzyl)amino)methyl)benzamide] | > 40 | 7.10 |  |
| CC(C)c1ccc(CN(Cc2ccc(C(=O)NC3CC3)cc2)C2CC2)cc1 [Compound 55, N-Cyclopropyl-4-((cyclopropyl(4-isopropylbenzyl)amino)methyl)benzamide] | > 40 | 6.96 |  |
| CC(C)(C)c1ccc(CN(Cc2ccc(C(=O)NC3CC3)cc2)C2CC2)cc1 [Compound 56] | > 40 | 7.22 |  |
| COc1ccccc1CN(Cc1ccc(C(=O)NC2CC2)cc1)C1CC1 [Compound 57] | > 40 | 6.57 |  |
| COc1cccc(CN(Cc2ccc(C(=O)NC3CC3)cc2)C2CC2)c1 [Compound 58] | > 40 | 6.31 |  |
| COc1ccc(CN(Cc2ccc(C(=O)NC3CC3)cc2)C2CC2)cc1 [Compound 59] | > 40 | 6.64 |  |
| N#Cc1ccccc1CN(Cc1ccc(C(=O)NC2CC2)cc1)C1CC1 [Compound 60] | > 40 | 6.92 |  |
| N#Cc1cccc(CN(Cc2ccc(C(=O)NC3CC3)cc2)C2CC2)c1 [Compound 61] | > 40 | 6.89 |  |
| N#Cc1ccc(CN(Cc2ccc(C(=O)NC3CC3)cc2)C2CC2)cc1 [Compound 62] | > 40 | 6.20 |  |
| CN(C)c1ccc(CN(Cc2ccc(C(=O)NC3CC3)cc2)C2CC2)cc1 [Compound 63, N-Cyclopropyl-4-((cyclopropyl(4-(dimethylamino)benzyl)amino)methyl)benzamide] | > 40 | 6.28 |  |
| CN(C)c1cccc(CN(Cc2ccc(C(=O)NC3CC3)cc2)C2CC2)c1 [Compound 64, N-Cyclopropyl-4-((cyclopropyl(3-(dimethylamino)benzyl)amino)methyl)benzamide] | > 40 | 6.49 |  |
| CC(=O)Nc1ccccc1CN(Cc1ccc(C(=O)NC2CC2)cc1)C1CC1 [Compound 65, 4-(((2-Acetamidobenzyl) (cyclopropyl)amino)methyl)-N-cyclopropylbenzamide] | > 40 | 5.13 |  |
| CC(=O)c1cccc(CN(Cc2ccc(C(=O)NC3CC3)cc2)C2CC2)c1 [Compound 68] | > 40 | 6.96 |  |
| CC(=O)c1ccc(CN(Cc2ccc(C(=O)NC3CC3)cc2)C2CC2)cc1 [Compound 69] | > 40 | 6.05 |  |
| O=C(NC1CC1)c1ccc(CN(Cc2cccc(CO)c2)C2CC2)cc1 [Compound 70, N-Cyclopropyl-4-((cyclopropyl(3-(hydroxymethyl)benzyl)amino)methyl)benzamide] | > 40 | 5.96 |  |
| O=C(NC1CC1)c1ccc(CN(Cc2ccc(CO)cc2)C2CC2)cc1 [Compound 71, N-Cyclopropyl-4-((cyclopropyl(4-(hydroxymethyl)benzyl)amino)methyl)benzamide] | > 40 | 6.77 |  |
| O=C(NC1CC1)c1ccc(CN(Cc2ccc(F)cc2F)C2CC2)cc1 [Compound 72, N-Cyclopropyl-4-((cyclopropyl(2,4-difluorobenzyl)amino)methyl)benzamide] | > 40 | 6.64 |  |
| O=C(NC1CC1)c1ccc(CN(Cc2ccc(F)c(F)c2)C2CC2)cc1 [Compound 73] | > 40 | 6.66 |  |
| O=C(NC1CC1)c1ccc(CN(Cc2cc(F)cc(F)c2)C2CC2)cc1 [Compound 74] | > 40 | 6.66 |  |
| O=C(NC1CC1)c1ccc(CN(Cc2c(F)cc(F)cc2F)C2CC2)cc1 [Compound 75, N-Cyclopropyl-4-((cyclopropyl(2,4,6-trifluorobenzyl)amino)methyl)benzamide] | > 40 | 6.72 |  |

| Compound | CC50 at 48 h [1] [µM] | pEC50 [2] | fold decrease in Pf 3D7 activity relative to 17 ([2]; ratio of EC50 to compound 17) [fold] |
| --- | --- | --- | --- |
| O=C(NC1CC1)c1ccc(CN(Cc2ccc(Cl)c(Cl)c2)C2CC2)cc1 [Compound 76] | > 40 | 6.68 |  |
| O=C(NC1CC1)c1ccc(CN(Cc2cc(Cl)cc(Cl)c2)C2CC2)cc1 [Compound 77] | > 40 | 6.64 |  |
| O=C(NC1CC1)c1ccc(CN(Cc2c(Cl)cc(Cl)cc2Cl)C2CC2)cc1 [Compound 78, N-Cyclopropyl-4-((cyclopropyl(2,4,6-trichlorobenzyl)amino)methyl)benzamide] | > 40 | 7.00 |  |
| Cc1ccc(CN(Cc2ccc(C(=O)NC3CC3)cc2)C2CC2)c(C)c1 [Compound 80, N-Cyclopropyl-4-((cyclopropyl(2,4-dimethylbenzyl)amino)methyl)benzamide] | > 40 | 6.72 |  |
| Cc1cc(C)cc(CN(Cc2ccc(C(=O)NC3CC3)cc2)C2CC2)c1 [Compound 81] | > 40 | 6.72 |  |
| Cc1cc(C)c(CN(Cc2ccc(C(=O)NC3CC3)cc2)C2CC2)c(C)c1 [Compound 82, N-Cyclopropyl-4-((cyclopropyl(2,4,6-trimethylbenzyl)amino)methyl)benzamide] | > 40 | 7.10 |  |
| COc1cc(OC)c(CN(Cc2ccc(C(=O)NC3CC3)cc2)C2CC2)c(OC)c1 [Compound 83, N-Cyclopropyl-4-((cyclopropyl(2,4,6-trimethoxybenzyl)amino)methyl)benzamide] | > 40 | 5.60 |  |
| O=C(NC1CC1)c1ccc(CN(Cc2cc(C(F)(F)F)cc(C(F)(F)F)c2)C2CC2)cc1 [Compound 84, 4-(((3,5-Bis(trifluoromethyl)benzyl) (cyclopropyl)amino)methyl)-N-cyclopropylbenzamide] | 15 | 7.00 |  |
| O=C(NC1CC1)c1ccc(CN(Cc2ccccn2)C2CC2)cc1 [Compound 85] | > 40 | 5.18 |  |
| O=C(NC1CC1)c1ccc(CN(Cc2ccncc2)C2CC2)cc1 [Compound 87] | > 40 | 5.04 |  |
| CCCN(Cc1ccc(C(=O)NC2CC2)cc1)C1CC1 [Compound 90, N-Cyclopropyl-4-((cyclopropyl(propyl)amino)methyl)benzamide] | > 40 | 5.60 |  |
| CC(C)N(Cc1ccc(C(=O)NC2CC2)cc1)C1CC1 [Compound 91, N-Cyclopropyl-4-((cyclopropyl(isopropyl)amino)methyl)benzamide] | > 40 | 5.59 |  |
| CC(C)(C)CN(Cc1ccc(C(=O)NC2CC2)cc1)C1CC1 [Compound 93] | > 40 | 6.34 |  |
| O=C(NC1CC1)c1ccc(CN(CC2CCC2)C2CC2)cc1 [Compound 94] | > 40 | 6.28 |  |
| O=C(NC1CC1)c1ccc(CN(CC2CCCC2)C2CC2)cc1 [Compound 95] | > 40 | 6.29 |  |
| O=C(NC1CC1)c1ccc(CN(CC2CCCCC2)C2CC2)cc1 [Compound 96] | > 40 | 6.62 |  |
| CC(c1ccc(C(=O)NC2CC2)cc1)N(Cc1ccccc1)C1CC1 (stereo not drawn) [Compound 98, 4-(1-(Benzyl(cyclopropyl)amino)ethyl)-N-cyclopropylbenzamide] | > 40 | 6.47 | 2 |
| O=C(NC1CC1)c1ccc(CN(C2CC2)S(=O)(=O)c2ccccc2)cc1 [Compound 101] | > 40 | 5.64 |  |
| O=C(NC1CC1)c1ccc(S(=O)(=O)N(Cc2ccccc2)C2CC2)cc1 [Compound 102, 4-(N-Benzyl-N-cyclopropylsulfamoyl)-N-cyclopropylbenzamide] | > 40 | 5.32 |  |
| O=C(NC1CC1)c1ccc(CN(Cc2ccccc2)C2CC2)cn1 [Compound 103, 5-((Benzyl(cyclopropyl)amino)methyl)-N-cyclopropylpicolinamide] | > 40 | 5.12 |  |
